According to patent EP3590935A1, “FUSED IMIDAZOLIUM DERIVATIVES FOR USE IN THE TREATMENT OF COLORECTAL CANCER” (Deutsches Krebsforschungszentrum, Stiftung des öffentlichen …, priority 2018, dated 2020):
“Also recorded” adds a separate entry of the source.

Key:
[1] = test system: solid tumours; conditions: phase I and II trials, solid non-CRC tumours; cited from earlier work
[2] = test system: CMS1 and CMS2 CRC cell lines; experiment: Analysis of public drug screen data (Iorio et al.): viability effect (AUC) in CMS-classified CRC cell lines; format: cell-based; conditions: 8 CMS1 and 16 CMS2 CRC cell lines, 256 drugs, 2016
Text: The present invention will now be further described in the following examples with reference to the accompanying figures and sequences, nevertheless, without being limited thereto. For the purposes of the present invention, all references as cited herein are incorporated by reference in their entireties. In the Figures: • Figure 1: Classification of colorectal cancer cell lines into consensus molecular subtypes (CMS). • (A) Workflow of data collection and subtype classification. Expression data of CRC cell lines were retrieved from six publicly available datasets. For each dataset, the CMS of every cancer cell line was separately identified using the R package 'CMSclassifier'. The CMS that was determined by the majority of datasets was then considered as the consensus. […] Induction of apoptosis was measured by FACS after staining with APC Annexin V and 7-AAD. […] Cell lysates were additionally analyzed by PARP and CASP8 immunoblot. β-actin serves as a loading control. […] The CMS1 cells lines RKO and HCT116 were treated with different concentrations of YM155 for 48 h and the expression of survivin was measured by qPCR. […] (E) HCT116, RKO, HT55 and CaCo2 cells were treated with 10 nM of YM155 for 24 h, after which global expression was determined by microarray analysis. […]

[3] = test system: survivin; experiment: Survivin transcript (qPCR) and protein levels after treatment; format: cell-based; conditions: four CRC cell lines
Text: (§1) The present invention will now be further described in the following examples with reference to the accompanying figures and sequences, nevertheless, without being limited thereto. For the purposes of the present invention, all references as cited herein are incorporated by reference in their entireties. In the Figures: • Figure 1: Classification of colorectal cancer cell lines into consensus molecular subtypes (CMS). • (A) Workflow of data collection and subtype classification. Expression data of CRC cell lines were retrieved from six publicly available datasets. For each dataset, the CMS of every cancer cell line was separately identified using the R package 'CMSclassifier'. The CMS that was determined by the majority of datasets was then considered as the consensus. […] Heatmap showing the viability effect of YM155 on individual CMS1 and CMS2 cell lines within the screen (blue indicates a low viability as measured by the AUC). • (C-D) Validation of YM155 as a selective drug in CMS1 colorectal cancer. […] Induction of apoptosis was measured by FACS after staining with APC Annexin V and 7-AAD. […] Cell lysates were additionally analyzed by PARP and CASP8 immunoblot. β-actin serves as a loading control. […] The CMS1 cells lines RKO and HCT116 were treated with different concentrations of YM155 for 48 h and the expression of survivin was measured by qPCR. […]

[4] = test system: HCT116, RKO, HT55 and CaCo2 cells; experiment: Global expression analysis by microarray after treatment; format: cell-based; conditions: 10 nM, 24 h; CMS1 versus CMS2 cell lines
Text: as §1

[5] = test system: PARP and CASP3; experiment: Immunoblot of PARP and caspase cleavage; format: cell-based; conditions: cell lysates; CMS1 versus CMS2 cell lines
[6] = test system: CMS1 cell lines HCT116 and RKO; experiment: Long-term proliferation assay; format: cell-based; conditions: CMS1 (HCT116, RKO) versus CMS2
[7] = test system: CMS1 (HCT116, RKO, LoVo, SNU-C2A, LIM2405, WiDr) and CMS2 (CaCo2, HT55, CL14, SW403, GP2d, HCA24) cell lines; experiment: Drug response curves (viability, AUC) in a panel of CMS1 and CMS2 cell lines; format: cell-based; conditions: 72 h; 6 CMS1 and 6 CMS2 cell lines
Text: The present invention will now be further described in the following examples with reference to the accompanying figures and sequences, nevertheless, without being limited thereto. For the purposes of the present invention, all references as cited herein are incorporated by reference in their entireties. In the Figures: • Figure 1: Classification of colorectal cancer cell lines into consensus molecular subtypes (CMS). • (A) Workflow of data collection and subtype classification. Expression data of CRC cell lines were retrieved from six publicly available datasets. For each dataset, the CMS of every cancer cell line was separately identified using the R package 'CMSclassifier'. The CMS that was determined by the majority of datasets was then considered as the consensus. Finally, genomic data from CCLE and COSMIC were used to analyse CMS specific distributions of mutations and copy number alterations. • (B) Distribution of CRC cell lines to different CMS. […] Drug response data from a large screen performed by Iorio et al. was combined with the CMS classification of CRC cell lines to identify differential drug effects between CMS1 and CMS2 cell lines. […] Cell lines were treated with increasing drug concentrations for 72 h. […] The CMS1 cell lines RKO and HCT116 and the CMS2 cell lines HT55 and CaCo2 were treated with increasing concentrations of YM155. Induction of apoptosis was measured by FACS after staining with APC Annexin V and 7-AAD. […] Data are shown as mean value ± s.e.m. of 3-4 independent replicates. Cell lysates were additionally analyzed by PARP and CASP8 immunoblot. β-actin serves as a loading control. […] CMS1 and 2 cell lines were treated with increasing concentrations of the Bcl2 inhibitor navitoclax for 72 h. […] The CMS1 cells lines RKO and HCT116 were treated with different concentrations of YM155 for 48 h and the expression of survivin was measured by qPCR. […] (E) HCT116, RKO, HT55 and CaCo2 cells were treated with 10 nM of YM155 for 24 h, after which global expression was determined by microarray analysis. […]

[8] = test system: HCT116 and HT55; experiment: Single knockout validation (SLC35F2, CCDC22, WASHC4, SNX17): drug-induced apoptosis by FACS; format: cell-based
Text: as §1

[9] = test system: CMS1 cell lines RKO and HCT116 and the CMS2 cell lines HT55 and CaCo2; experiment: Apoptosis by flow cytometry (APC Annexin V and 7-AAD); format: cell-based; conditions: increasing concentrations; CMS1 (RKO, HCT116) versus CMS2 (HT55, CaCo2)
Text: as §1

SMILES | clinical benefit / efficacy [1] | tolerability / toxicity profile [1] | differential effect between CMS1 and 2 (viability effect, AUC) [2] | protein levels of survivin [3] | expression of survivin (transcript) ([3]; qPCR, 48 h) | global expression [4] | cleavage of PARP and CASP3 [5] | higher sensitivity of CMS1 cell lines [6] | sensitivity of CMS1 versus CMS2 cell lines (dose response curves, comparison of AUCs) [7] | effect of candidate gene knockout on drug-induced apoptosis ([8]; HCT116 (CMS1)) | effect of candidate gene knockout on drug sensitivity ([8]; HT55 (CMS2)) | induction of apoptosis (percentage of apoptotic cells) [9]
COCCn1c2c([n+](Cc3cnccn3)c1C)C(=O)c1ccccc1C2=O [YM155, 11-(2-methoxyethyl)-2-methyl-4,9-dioxo-3-(pyrazin-2-ylmethyl)-4,9-dihydro-1H-naphtho(2,3-d)imidazolium bromide] | efficacy results are mixed; also recorded: failed to show clinical benefit; also recorded: no clinical benefit was observed | safe and good tolerability and favourable toxicity profile | selective effect on CMS1 cancer; also recorded: strongest differential effect between CMS1 and 2 | protein levels of survivin are only reduced at high concentrations | expression of survivin is only repressed in RKO cells | global expression was dynamically reshaped upon treatment in CMS1 cell lines | detected at low concentrations in CMS1 but not CMS2 cell lines; also recorded: occurred at lower concentrations in RKO compared to CaCo2 | approximately 100 fold | significantly higher vulnerability of CMS1 colorectal cancer; also recorded: significantly more sensitive | All candidate genes lead to resistance to YM155 induced apoptosis at different concentrations in HCT116; also recorded: resistance against YM155 induced apoptosis in HCT116 | only SLC35F2 knockout mediates resistance in HT55; also recorded: did not change YM155 sensitivity in HT55 | Apoptosis can be measured at lower concentrations in CMS1 cell lines; also recorded: apoptosis was induced in CMS1 cell lines at significantly lower concentrations
CC1(C)CCC(c2ccc(Cl)cc2)=C(CN2CCN(c3ccc(C(=O)NS(=O)(=O)c4ccc(N[C@H](CCN5CCOCC5)CSc5ccccc5)c(S(=O)(=O)C(F)(F)F)c4)cc3)CC2)C1 [navitoclax] |  |  |  |  |  |  |  |  | does not show a significant difference between CMS1 and CMS2; also recorded: no difference in navitoclax sensitivity between CMS1 and CMS2 cell lines |  |  | 
O=c1[nH]cc(F)c(=O)[nH]1 [5-fluorouracil] |  |  |  |  |  |  |  |  | do not show a different viability effect in CMS1 and CMS2 colorectal cancer; also recorded: no difference in response rates could be detected between CMS1 and CMS2 |  |  | 
